In the METLIN SMRT retention time set (Domingo-Almenara et al. 2019):

Assay: gradient 5% acetonitrile 3 min, to 50% in 2 min, to 85% in 15 min, held 3 min, 100 µL/min
Settings: column: Zorbax Extend-C18 2.1 x 50 mm; eluents: water / acetonitrile, 0.1% formic acid
How it was run: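 Each retention time is based on an adduct peak selected computationally and verified by manual inspection. Measurements used HPLC–quadrupole time-of-flight mass spectrometry in positive and negative ionization mode on mixtures of ~100 pure standards. Chromatography ran on a Zorbax Extend-C18 column (2.1 × 50 mm, 1.8 μm) at 100 μL/min with water and acetonitrile, each containing 0.1% formic acid, and dead and dwell volumes of 40 μL and 900 μL.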

CCNc1cc(N2CCC(CCC(=O)N3CCN(c4ncccn4)CC3)CC2)ncn1
RP-LC retention time: 626 s

CCc1noc2nc(C)n(CC(=O)NCc3ccc(OC)cc3)c(=O)c12
RP-LC retention time: 755 s

COCCCNC(=O)Cn1c(=O)c(S(=O)(=O)c2ccccc2)cc2cc(C)ccc21
RP-LC retention time: 743 s

COC(=O)c1c(NC(=O)c2cc(C)no2)sc(C)c1C
RP-LC retention time: 1030 s

Cc1ccc(OCC(=O)Nc2nnc(SCc3nnc(-c4ccccc4C)o3)s2)c(C)c1
RP-LC retention time: 1100 s

O=C(Cn1c(=O)cc(-c2nc(C3CC3)no2)c2ccccc21)NCCC1=CCCCC1
RP-LC retention time: 1110 s

COc1ccccc1N1CCN(CCNC(=O)Cc2ccc(Cl)cc2)CC1
RP-LC retention time: 572 s

CC(C)Cc1ccc(S(=O)(=O)N(C)C2CCc3nn(CC4CC4)c(=O)n3CC2)cc1 (stereo not given)
RP-LC retention time: 914 s

O=CN1CC/C(=C/c2ccc3c(c2)OCO3)C1=O
RP-LC retention time: 784 s

CS(=O)(=O)Nc1ccc(CC(=O)NCC(F)(F)F)cc1
RP-LC retention time: 623 s

O=C(Nc1ccc(F)cc1)C1CCCN(c2ccc(=O)n(-c3ccc(F)cc3)n2)C1 (stereo not given)
RP-LC retention time: 849 s

CCc1ccccc1NC(=O)Cn1c(=O)nc(N2CCC(C)CC2)c2ccccc21
RP-LC retention time: 898 s

O=C(Cn1cccc1-c1nc(-c2ccccc2)cs1)NCc1ccco1
RP-LC retention time: 1030 s

CCc1cc(N2CCN(C(=O)c3ccc(F)cc3)CC2)nc2nncn12
RP-LC retention time: 548 s

CCOc1ccc(NC(=O)C2CCN(S(=O)(=O)c3cc(-c4noc(C)n4)sc3C)CC2)cc1
RP-LC retention time: 1000 s

CC(=O)c1cccc(NC(=O)CN2C(=O)NC3(CCCCC3)C2=O)c1
RP-LC retention time: 711 s

COC(=O)c1ccc2c(=O)n(-c3ccccc3)c(N3CCN(C)CC3)nc2c1
RP-LC retention time: 624 s

Cc1c(F)cccc1NC(=O)NC1CCN(c2ccc(F)cc2)C1=O (stereo not given)
RP-LC retention time: 866 s

O=C(Cc1ccc(F)cc1)Nc1cc(-c2cccs2)no1
RP-LC retention time: 926 s

O=C(Nc1cc(-c2ccccn2)no1)c1cccc(C(F)(F)F)c1
RP-LC retention time: 916 s

COc1cccc(-n2ccn3cc(-c4ccc(Cl)cc4)nc3c2=O)c1
RP-LC retention time: 875 s

COc1ccc(-c2noc(-c3nc(-c4cccnc4)no3)n2)cc1OC
RP-LC retention time: 893 s

CN1C(=O)COc2ccc(-c3csc(NC(=O)Cc4ccccc4)n3)cc21
RP-LC retention time: 898 s

COC(=O)c1c(NC(=O)c2cnn(-c3ccccc3)c2C)sc2c1CCN(C(C)=O)C2
RP-LC retention time: 812 s

Cc1ccc(CNC(=O)C2(C)CCC(=O)N2CCc2c[nH]c3ccccc23)cc1 (stereo not given)
RP-LC retention time: 805 s

CN1C(=O)CSc2cnn(CC(=O)NC3CCCCC3)c(=O)c21
RP-LC retention time: 646 s

O=C(Nc1cnn(-c2ncc(N3CCCC3)cn2)c1)c1ccccc1C(F)(F)F
RP-LC retention time: 817 s

CCCn1cc(CCNS(=O)(=O)c2cccc(C(F)(F)F)c2)c2cccnc21
RP-LC retention time: 904 s

O=C(Nc1cc(F)ccc1F)N1CCc2nc(-c3ccc(F)cc3)ncc2C1
RP-LC retention time: 985 s

CCC(=O)NCc1nc2c(n1C)CN(S(=O)(=O)c1ccc(F)cc1F)CC2
RP-LC retention time: 600 s

Cc1cc(C)n(-c2c3c(nc4c(-c5ccccc5)c(C)nn24)CCC3)n1
RP-LC retention time: 982 s

CC(C)c1ccc(OCC(=O)Nc2nnc(-c3ccc(Br)o3)o2)cc1
RP-LC retention time: 906 s

O=C(Cc1ccc(F)cc1)N1CCN(c2nc(CN3CCOCC3)cs2)CC1
RP-LC retention time: 616 s

O=C(c1ccsc1)N1CCC(OCc2nc(C3CC3)no2)CC1
RP-LC retention time: 762 s

CCOc1ccc(C2Cn3nnc(-c4nc(-c5ccccc5Cl)no4)c3CO2)cc1 (stereo not given)
RP-LC retention time: 1150 s

COc1ccc(OC)c(S(=O)(=O)N2CCC(n3c(C)cnc3C)CC2)c1
RP-LC retention time: 630 s

Cc1ccn2cc(-c3ccc(NC(=O)COc4ccccc4)cc3)nc2n1
RP-LC retention time: 663 s

Cc1sc(NC(=O)c2ccc(COc3ccc(F)cc3)o2)nc1-c1ccccc1
RP-LC retention time: 1180 s

Cc1ccccc1CNC(=O)C1(C)CCN(S(=O)(=O)c2ccc(Br)cc2)CC1
RP-LC retention time: 1030 s

Cc1ccc(OCC(=O)N(C)CC2(C)CCOCC2)cc1
RP-LC retention time: 799 s

O=C(Nc1ccccc1F)N1CCC(N2C(=O)C3(CCCCC3)C2c2ccccc2)CC1 (stereo not given)
RP-LC retention time: 940 s

Cc1noc(C2CCCCN2CC(=O)Nc2nccs2)n1 (stereo not given)
RP-LC retention time: 675 s

Cc1ccc(F)cc1S(=O)(=O)N1CC(F)(F)C[C@H]1CN1CCc2ccccc2C1
RP-LC retention time: 795 s

CCc1nc2cc(N3CCC(C(=O)NCc4cccnc4)CC3)cnc2nc1CC
RP-LC retention time: 598 s

CCc1noc(NC(C)=O)c1-c1ccc(OC)c(S(=O)(=O)NCc2cccc(OC)c2)c1
RP-LC retention time: 786 s

CN(CCOc1ccc(CC2SC(=O)NC2=O)cc1)c1ccccn1 (stereo not given)
RP-LC retention time: 628 s

Cc1c(S(=O)(=O)NC2CCCc3ccccc32)cc(C(=O)N2CCCCC2)n1C (stereo not given)
RP-LC retention time: 907 s

Cc1nn(-c2ccc(Cl)nn2)c(C)c1Cl
RP-LC retention time: 996 s

CCOC(=O)c1c(C)[nH]c(C(=O)N2CCCC(C(=O)NCc3cccc(Cl)c3)C2)c1C (stereo not given)
RP-LC retention time: 848 s

CCC(=O)N1CCN(c2nc3c(s2)CC(C(=O)Nc2ccc(Cl)c(C)c2)CC3)CC1 (stereo not given)
RP-LC retention time: 607 s

CCCNc1cc(N2CCC(CCC(=O)NCC(C)C)CC2)ncn1
RP-LC retention time: 642 s

CCc1nc(-c2cccc(-c3noc(CNC(=O)c4ccccc4)n3)c2)cs1
RP-LC retention time: 1010 s

O=C(O)c1cc2cc(OCc3ccccc3)ccc2[nH]1
RP-LC retention time: 903 s

CCCC(=O)NCc1nc(-c2ccccc2Cl)no1
RP-LC retention time: 755 s

Cc1ccc(NC(=O)N2CC(c3nc(CCOCC4CCCC4)no3)C2)cc1C
RP-LC retention time: 1060 s

CC(C)(Oc1ccc(Cl)cc1)C(=O)NCC1CCN(C(=O)Nc2ccc(F)cc2)CC1
RP-LC retention time: 874 s

CCS(=O)(=O)c1nc2ccc(NS(=O)(=O)CCc3ccccc3)cc2s1
RP-LC retention time: 918 s

O=C(Cn1cccc(-c2nc(-c3ccc(F)cc3)no2)c1=O)Nc1ccc(F)cc1
RP-LC retention time: 878 s

CCOC(=O)c1cc(S(=O)(=O)N2CCCC2C(=O)Nc2cccc(SC)c2)cn1C (stereo not given)
RP-LC retention time: 995 s

O=C(Nc1nnc(C2CC(=O)N(c3ccc(F)cc3)C2)o1)c1cccc(Cl)c1 (stereo not given)
RP-LC retention time: 750 s

Cn1nc(C(=O)N2CCCC(C(=O)N3CCCC3)C2)c2c1CCN(C(=O)c1c(F)cccc1F)C2 (stereo not given)
RP-LC retention time: 686 s

CN(CCc1noc(COc2ccc(Cl)cc2)n1)C(=O)Nc1ccc(F)cc1
RP-LC retention time: 934 s

O=C1NC(C(=O)Nc2ccc(F)c(F)c2)Cn2cccc21 (stereo not given)
RP-LC retention time: 693 s

O=C(C1CCCC1)N1CCn2c(nnc2-c2ccccc2)C1
RP-LC retention time: 689 s

O=c1ccc(S(=O)(=O)N2CCOCC2)cn1Cc1cc(F)cc(F)c1
RP-LC retention time: 791 s

C=C1CC(COc2cc(=O)oc3ccccc23)(c2ccccc2)OC1=O (stereo not given)
RP-LC retention time: 885 s

COc1ccc(NC(=O)C2CCN(S(=O)(=O)c3c(C)nn(-c4ccccc4)c3C)CC2)c(OC)c1
RP-LC retention time: 940 s

O=C(C1CCN(c2cnc3nccnc3c2)CC1)N1CCN(c2cccc(Cl)c2)CC1
RP-LC retention time: 833 s

COc1cccc(-c2noc(Cn3nc(-c4ccc5c(c4)OCO5)ccc3=O)n2)c1
RP-LC retention time: 957 s

CS(=O)(=O)N1CCC(C(=O)Nc2ccccc2Cl)Oc2ccccc21 (stereo not given)
RP-LC retention time: 935 s

Cc1ccccc1Nc1c(-c2ccccc2O)nc2ccc(Br)cn12
RP-LC retention time: 1050 s

Cc1ccccc1NC(=O)N1CCCN(c2ccc(=O)n(-c3ccccc3)n2)CC1
RP-LC retention time: 720 s

CCc1nc2cc(-c3noc(Cc4ccccc4Cl)n3)ccc2o1
RP-LC retention time: 1170 s

CC(C)(C)CC(=O)Nc1ccc2c(c1)N(C(=O)c1ccco1)CCC2
RP-LC retention time: 866 s

COc1ccc(Cn2cc(S(=O)(=O)N3CCCCCC3)ccc2=O)cc1
RP-LC retention time: 818 s

O=C1NCCCn2cc(S(=O)(=O)N3CCN(c4ccccc4)CC3)cc21
RP-LC retention time: 724 s

COCCc1noc(C2Cc3ccccc3N2C(=O)NCc2ccc(C)cc2)n1 (stereo not given)
RP-LC retention time: 973 s

COC[C@@H]1CN(S(=O)(=O)c2cccc(C)c2)C[C@H]1c1ccccn1
RP-LC retention time: 651 s

COc1ccc(NS(=O)(=O)c2ccc3c(c2)C(=O)N(C)c2ncccc2O3)c(C)c1
RP-LC retention time: 898 s

Cn1cnc2c(C(=O)NCc3ccco3)nn(-c3ccc(Cl)cc3)c2c1=O
RP-LC retention time: 834 s

Cc1ccccc1CNS(=O)(=O)c1ccc(-c2c(C)noc2C)cc1
RP-LC retention time: 959 s

CN1CCCc2cc(C(=O)NCc3ccccc3Cl)sc21
RP-LC retention time: 964 s

Cc1ccc(C2=NC3(CCN(C(=O)c4ccccc4C)CC3)ON2)cc1
RP-LC retention time: 855 s

O=C(C1CCCC1)N1CCC(c2noc(-c3ccccc3)n2)C1 (stereo not given)
RP-LC retention time: 924 s

Cc1cccc(-c2noc(-c3sccc3NC(=O)c3ccc4nc[nH]c4c3)n2)c1
RP-LC retention time: 957 s

CCCN1C(=O)COc2ccc(-c3noc(CNC(=O)Cc4ccc(Cl)cc4)n3)cc21
RP-LC retention time: 1050 s

CCc1cc(=O)n(CC(=O)NCc2ccc(C)cc2)c(N)n1
RP-LC retention time: 610 s

CCOC(=O)c1cnn(-c2ccc(C(=O)Nc3ccc(Br)cc3)cn2)c1N
RP-LC retention time: 1020 s

O=c1c2nc(-c3ccc4c(c3)OCO4)cn2ccn1-c1ccc(F)cc1
RP-LC retention time: 772 s

CCCN1C(=O)c2cc(S(=O)(=O)NCc3ccccc3)ccc2Oc2cccnc21
RP-LC retention time: 1050 s
